Patent EP3338775B1, “USE OF BUTYLIDENEPHTHALIDE” (Everfront Biotech Inc., priority 2015, dated 2017)
Several values for one entry are separate records, joined by “and”; a condition that tells them apart may be missing. Equal entries are not always repeated.

Key:
Type in all cases: cell-based
[1] = tested on: malignant glioma DBTRG cells; assay: MTT cell viability assay on malignant glioma DBTRG cells; conditions: 24-hour group
Method: Thereafter, a cell viability assay, MTT assay, was utilized to analyze the viabilities of brain CSCs ^CD133+ and malignant glioma DBTRG cells. […] The results are shown in Figure 1A and Figure 1B for 24-hour group and 48-hour group (i.e., the treatment for 24 hours and 48 hours) and in Table 1 for 24-hour group.

ALDH = assay: ALDEFLUOR flow cytometry analysis of ALDH activity in HNC-TIC-like oral stem cells; conditions: DEAB-added group (150 µM DEAB), with or without BP treatment; Figure 8
Method: ALDH protein is also an important stemness-maintenance marker of cancer stem cells and participates in the regulation of the self-renewal and differentiation of cancer stem cells. HNC-TIC-like oral stem cells (i.e., ALDH1^+CD44^+-1 cell line or ALDH1^+CD44^+-2 cell line) were treated with different concentrations (0, 25 and 50 µg/ml) of BP for 24 hours, and then, 1 ×10^5 cells obtained from each group were separately suspended in 50 µl of a stem cell detection kit (i.e., ALDEFLUOR array kit, purchased from […] Technologies Inc., Vancouver, Canada) buffer and the cell suspension of each group was separately added with ALDEFLUOR to a final concentration of 1 µM. Thereafter, a sample of each group was stained by […] and then analyzed by flow cytometry analysis to determine the ALDH activity of HNC-TIC-like oral stem cells (i.e., ALDH1^+CD44^+-1 cell line and ALDH1^+CD44^+-2 cell line).
The above experimental procedure was repeated, but the cell suspension of each group was further added with N,N-diethylaminobenzaldehyde (DEAB, i.e., an inhibitor of ALDH) to a final concentration of 150 µM of DEAB separately.

brain CSCs ^CD133+ = assay: MTT cell viability assay on brain CSCs CD133+; conditions: 24-hour group, MTT assay; read-out: IC50 to brain CSCs ^CD133+
Excerpt: Thereafter, a cell viability assay, MTT assay, was utilized to analyze the viabilities of brain CSCs ^CD133+ and malignant glioma DBTRG cells. […]

Row | Structure (SMILES) | IC50 [1] | live cells with ALDH activity, of total live cells (ALDH) [%] | IC50 (brain CSCs ^CD133+)
1 | O=NN(CCCl)C(=O)NCCCl [BCNU, bis-chloroethylnitrosourea] | 352 µM and 75.4 µg/mL | – | –
2 | CCN(CC)c1ccc(C=O)cc1 [DEAB, N,N-diethylaminobenzaldehyde, reference compound] | – | 0.1 | –
3 | Cn1nnc2c(C(N)=O)ncn2c1=O [TMZ, temozolomide, reference compound] | 1.66 mM and 322 µg/mL | – | > 1.6 mM and > 311 µg/mL
